From patent US12202861B2, “Inducible, tunable, and multiplex human gene regulation using CRISPR-Cpf1” (The General Hospital Corporation, priority 2017, dated 2025)

How the values were obtained:
Assay type in all cases: cell-based, human
HBB = assay: RT-qPCR activation of endogenous HBB gene promoter in HEK293 cells; conditions: single crRNA
Description: (§1) FIGS. 1A-1E. Targeted human endogenous gene regulation using individual crRNAs with dLbCpf1-based activators • (A) Schematic showing direct dLbCpf1-VPR and dLbCpf-p65 activator fusion proteins. • (B) Activities of dLbCpf1-p65 or dLbCpf1-VPR using single crRNAs at three endogenous human genes (HBB, AR, and NPY1R) in human HEK293 cells. Relative activation of the indicated gene promoters was measured by RT-qPCR. Three separate individual crRNAs were targeted within promoter sequence 1 kb upstream of the transcription start site for each gene. Relative mRNA expression is calculated by comparison to the control sample in which no crRNA is expressed. (C) Analysis of various crRNAs targeted to the human CD5 and CD22 promoters. 32 crRNAs (16 for each gene) were designed to target sites located within promoter sequences 1 kb upstream or 500 bps downstream of the TSS of each gene. Repetitive sequences were not targeted. After 72 hours post-transfection, cells were stained with fluorescently labeled antibody for CD5 or CD22 protein and fluorescent-positive cells were quantified by flow cytometry. Error bars represent s.e.m. for three biological replicates. […] (D) Schematic illustrating drug-inducible bi-partite dLbCpf1-based activator fusion proteins. dLbCpf1 is fused to one to four DmrA domains and VPR or p65 is fused to a DmrC domain. Because DmrA and DmrC interact only in the presence of an A/C-heterodimerizer drug (red diamond), the bi-partite activator is only reconstituted in the presence of the drug. (E) Activities of drug-inducible bi-partite dLbCpf1-based activators using single crRNAs at three endogenous human genes (HBB, AR, and NPY1R) in human HEK293 cells. Relative activation of the indicated gene promoters was measured by RT-qPCR. […] Data shown in (B) and (E) represent three biological independent replicates and error bars indicate standard deviation (SD) of three technical replicates.
(§2) (A) Schematic of an expression cassette designed to express multiple gRNAs encoded on a single transcript. The arrows indicate cleavage sites being processed by the RNase activity of dLbCpf1. (B) Schematic illustrating multiplex expression of three crRNAs each targeted to a different endogenous gene promoter in a single cell. (C) Simultaneous activation of three endogenous human genes using crRNAs expressed from a multiplex transcript or from individual transcripts with dLbCpf1-VPR direct fusions (left panel), dLbCpf1-DmrA(×4) and DmrC-VPR fusions (middle panel), and dLbCpf1-DmrA(×4) and DmrC-p65 fusions (right panel). Transcripts were measured in HEK293 cells using RT-qPCR with relative mRNA expression calculated by comparison to the control sample in which no crRNA is expressed. (D) Activities of MST crRNA with different dLbCpf1-based activators in human U20S cells. Graphs showing activation of three endogenous human genes with dLbCpf1-VPR direct fusions, dLbCpf1-DmrA(×4) and DmrC-p65 fusions, and dLbCpf1-DmrA(×4) and DmrC-VPR fusions and crRNAs expressed from a multiplex single transcript (MST) or from transcripts encoding a single crRNA. RNA expression was measured by RT-qPCR and relative expression shown was calculated by comparison to a control sample in which no crRNA is expressed. (E) Schematic illustrating multiplex expression of three crRNAs each targeted to the same endogenous gene promoter in the same cell. (F) Activities of direct dLbCpf1-p65 or dLbCpf1-VPR fusions with sets of three crRNAs expressed from a multiplex transcript or from individual transcripts on the HBB, AR, or NPY1R endogenous gene promoters. Transcripts were measured in HEK293 cells using RT-qPCR with relative mRNA expression calculated by comparison to the control sample in which no crRNA is expressed. (G) Activities of dLbCpf1-DmrA(×4) and DmrC-VPR fusions or with dLbCpf1-DmrA(×4) and DmrC-p65 fusions with sets of three crRNAs expressed from a multiplex transcript or from individual transcripts on the HBB, AR, or NPY1R endogenous gene promoters. […]

NPY1R = assay: RT-qPCR activation of endogenous NPY1R gene promoter in HEK293 cells; conditions: single crRNA
Description: as §1, §2

AR = assay: RT-qPCR activation of endogenous AR gene promoter in HEK293 cells; conditions: bi-partite, with dLbCpf1 fusions harboring two, three or four DmrA domains, single crRNA
Description: as §1
(A) Schematic of an expression cassette designed to express multiple gRNAs encoded on a single transcript. The arrows indicate cleavage sites being processed by the RNase activity of dLbCpf1. (B) Schematic illustrating multiplex expression of three crRNAs each targeted to a different endogenous gene promoter in a single cell. […] Transcripts were measured in HEK293 cells using RT-qPCR with relative mRNA expression calculated by comparison to the control sample in which no crRNA is expressed. […] RNA expression was measured by RT-qPCR and relative expression shown was calculated by comparison to a control sample in which no crRNA is expressed. […] Transcripts were measured in HEK293 cells using RT-qPCR with relative mRNA expression calculated by comparison to the control sample in which no crRNA is expressed. […]

[1] = bi-partite with dLbCpf1-DmrA fusions
[2] = bi-partite, with dLbCpf1 fusions harboring two, three or four DmrA domains

Substance: DmrC-VPR: CAG-DmrC-NLS-FLAG-VPR; DmrC dimerization domain fused to VPR activator (SEQ ID NO: 49)
- dependence of maximal activation on A/C heterodimerizer drug (HBB; [1]): dependent on the presence of the A/C heterodimerizer drug
- maximum level of activation relative to direct dLbCpf1-VPR fusions (HBB; [1]): approximately half
- activation of transcription (HBB; [2]): activation
- dependence of maximal activation on A/C heterodimerizer drug (NPY1R; [1]): dependent on the presence of the A/C heterodimerizer drug
- maximum level of activation relative to direct dLbCpf1-VPR fusions (NPY1R; [1]): approximately half
- activation of transcription (NPY1R; [2]): activation
- activation of transcription (AR): lack of an effect
